US20140037630A1, “METHODS FOR TREATING MICA-RELATED DISORDERS” (DANA-FARBER CANCER INSTITUTE, INC., priority 2006, published 2014)

How the values were obtained:
U226 MM cells [1] = experiment: Dendritic cell cross-presentation of MGUS sera-coated treated U226 MM cells, IFN-γ ELISPOT of CD8+ T cells; format: cell-based; conditions: drug treated U226 MM cells coated with MGUS sera; CD8+ T cells stimulated seven days
Procedure: Donor peripheral blood mononuclear cells (PBMCs) were incubated in 10% patient sera as described above, and NK cells, isolated by magnetic cell sorting (Miltenyl Biotech), were tested in four-hour lysis assays against ^51Cr-labeled K562 target cells. The spontaneous release in all assays was less than 20% of the maximum. Dendritic cells (generated from adherent PBMCs with GM-CSF and IL-4) were co-cultured with opsonized tumor cells (1:1 ratio) for 20 hours, matured with LPS (Sigma-Aldrich) for 24 hours, and then used to stimulate autologous CD8+ T cells, isolated by magnetic cell sorting, for seven days. Antigen specific IFN-γ production was then determined by ELISPOT. For enzyme-linked immunospot (ELISPOT) analysis, ImmunoSpotplates (Cellular Technology) were coated overnight at 37° C. with 10 μg/ml anti-IFN-γ mAb (Mabtech). […] Spots were developed by using BCIP/NBT as a color development substrate and counted with an ImmunoSpot microplate reader (Cellular Technology, Cleveland).
(§1) For the experiment shown in FIG. 16B, the indicated MM cells were treated with 20 μM Bortezomib overnight and surface MICA expression was determined with flow cytometry. […] IFN-γ production was measured by ELISPOT against dendritic cells loaded with U226 MM cells. […]

MM-1R MM cells = experiment: Surface MICA expression by flow cytometry in MM-1R MM cells; format: cell-based; conditions: 20 μM Bortezomib overnight
Procedure: (§2) PBMCs and bone marrow aspirates were processed by Ficoll-Hypaque (Pharmacia) density-gradient centrifugation. PBMCs from healthy donors or patients were incubated for 48 hours in patient or control sera (10%) in complete media and stained with PE-conjugated anti-NKG2D mAb (Pharmingen), FITC-conjugated anti-CD3 mAb (BD-Biosciences Pharmingen), and either PC5-conjugated anti-CD8 mAb or PC5-conjugated anti-CD56 mAb (Beckman-Coulter). In Examples 9-11, antibodies used, in addition to the above, were: FITC-conjugated anti-CD138, PE-conjugated anti-MICA mAb (R&D Systems), and anti-ERp5 (Axxora Platform) followed by FITC-conjugated anti-rabbit (Southern Biotech). Cells were analyzed with a FW501 flow cytometer (Beckman-Coulter) and FlowJo software (Tree Star). Cells were gated for CD3^+CD8^+ T cells and CD3^−CD56^+ NK cells. […] Cells were analyzed with a FACScan cytometer (Becton Dickinson). […]
as §1

U226 MM cells [2] = experiment: Immunoblotting for DNA damage response (phospho-ATM, phospho-chk-2) in U226 MM cells; format: cell-based
Procedure: (§3) Antibodies used for immunoblotting were: anti-phospho-ATM (ser 1981), anti-ATM, anti-phospho-ATR (ser 428), anti-ATR, anti-phospho-chk-1 (ser 280) and anti-phospho-chk-2 (thr 68) (Cell Signaling, Beverly, Mass.). Immunoblotting was performed according to standard methods. In some experiments, U226 cells were transiently transfected with expression plasmids encoding human chk-1 shRNA (5′-[…]-3′) (SEQ ID NO: 1), chk-2 shRNA, or ATM shRNA (Upstate cell signaling, Lake Placid, N.Y.) according to the manufacturer's instructions. The efficiency of gene knockdown was 50%-90% as assessed by immunoblotting.
(§4) U226, RPMI, and MM-1R cells were obtained from the American Type Culture Collection (Manassas, Va.), and MM-1S cells were a gift of Dr. Steven Rosen (Northwestern University). […] U226-MICA cells were generated with retroviral mediated gene transfer according to standard methods.
(§5) The effect of the proteasome inhibitor Bortezomib, a MM therapeutic, on MICA expression and the DNA damage response pathway was analyzed. U226 and RPMI-8226 MM cells were treated with 20 μM Bortezomib, 250 μg/ml dexamethasone or 10 μg/ml aphidicolin (a DNA polymerase inhibitor that served as a control for inducing DNA damage) for the indicated times. Cell lysates were prepared and evaluated for phospho-ATM (ser 1981), ATM, phospho-chk-2 (thr 68) or chk-2 by immunoblotting. […]

RPMI-8226 MM cells = experiment: Immunoblotting for DNA damage response (phospho-ATM, phospho-chk-2) in RPMI-8226 MM cells; format: cell-based; conditions: 20 μM Bortezomib or 250 μg/ml dexamethasone
Procedure: as §3, §4, §5

U226 MM cells [3] = experiment: Surface MICA expression by flow cytometry in U226 MM cells; format: cell-based; conditions: 20 μM Bortezomib overnight
Procedure: as §2, §1

MM-1S cells = experiment: Immunoblotting for phospho-ATM and total ATM in MM-1S cells; format: cell-based; conditions: 10 μM Bortezomib
Procedure: as §3, §4, §5

MICA = experiment: Anti-MICA antibody ELISA with recombinant MICA protein on longitudinal patient sera; format: in vivo, human; conditions: patient MEL15; sera diluted 1:500
Procedure: (§6) Anti-MICA antibodies and sMICA levels were measured with ELISAs using recombinant MICA protein (ProSpec-Tany TechnoGene Inc.) and anti-human MICA monoclonal antibodies (R&D Systems). The lower limits of the assay were 90 pg/ml. The Wilcoxon rank sum test with no adjustments for multiple comparisons was used to analyze the differences among the normal donors, MGUS, and MM patients. For complement assays, 293T and 293-T-MICA cells, generated by retroviral mediated gene transfer were incubated with patient sera and human complement (Sigma-Aldrich) and lysis quantified using MTT (Roche Diagnostic GmbH).
The humoral response to MICA was analyzed by an ELISA with recombinant MICA protein as described in Example 1. Longitudinal sera samples from MEL15 were diluted 1:500. Downward arrows denote tumor cell vaccinations and upward arrows depict infusions of MDX-010.
Patient M37 entered study with visceral melanoma metastases, which were completely resected for vaccine manufacture. […] Subsequent isolated recurrences were processed into additional vaccines, whereas the patient succumbed to progressive disease 4.5 years after study entry.

sMICA = sMICA ELISA on longitudinal MEL15 sera; format: in vivo, human; conditions: patient MEL15 sera
Procedure: as §6
Soluble MICA (sMICA) levels were also analyzed. […] The reduction in sMICA was confirmed with immunoblotting analysis of MEL15 sera using an anti-MICA monoclonal antibody.

Compound	dendritic cell cross-presentation of treated U226 cells by MGUS sera (IFN-γ ELISPOT) (U226 MM cells [1])	surface expression of MICA (MM-1R MM cells)	ATM phosphorylation (ser 1981) (U226 MM cells [2]; 10 μM Bortezomib)	phosphorylation of ATM (ser 1981) and chk-2 (thr 68) (U226 MM cells [2]; 20 μM Bortezomib or 250 μg/ml dexamethasone)	phosphorylation of ATM (ser 1981) and chk-2 (thr 68) (RPMI-8226 MM cells)	surface expression of MICA (U226 MM cells [3])	ATM (total ATM, immunoblot) (MM-1S cells)	anti-MICA antibody titers (MICA)	sMICA levels (sMICA)
CC(C)C[C@H](NC(=O)[C@H](Cc1ccccc1)NC(=O)c1cnccn1)B(O)O [Bortezomib]	as efficiently as U226-MICA cells	increased the surface expression of MICA	induced ATM phosphorylation	triggered the rapid phosphorylation	but not RPMI MM cells	increased the surface expression of MICA	stimulated the degradation of ATM		
MDX-010: fully human anti-CTLA-4 blocking monoclonal antibody								elevated levels of anti-MICA antibodies	sharp decrease
